{"source": "patent US12077503B2", "about": "“Substituted cyclic amides and their use as herbicides” (FMC CORPORATION, priority 2015, dated 2024)", "type_in_all_cases": "in vivo", "key": {"Kochia (Kochia scoparia)": {"system": "Kochia (Kochia scoparia)", "assay": "Test A preemergence", "details": "Bassia scoparia, pre-emergence, 240 h, preemergence, 0 to 100 scale where 0 is no effect and 100 is complete control, read-out: Kochia plant response rating", "in_short": "(§1)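 Compounds were formulated in a non-phytotoxic solvent mixture with surfactant and applied as a preemergence directed soil spray after seeding, or sprayed postemergence over plants 2 to 10 cm tall at the one- to two-leaf stage. Evaluation after about 10 d compared treated with untreated controls, using a scale from 0 (no effect) to 100 (complete control).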"}, "[1]": {"system": "barnyardgrass (Echinochloa crus-galli)", "assay": "Test A preemergence", "details": "Echinochloa crus-galli, pre-emergence, 240 h, preemergence, read-out: Barnyardgrass plant response rating", "in_short": "as §1"}, "[2]": {"system": "giant foxtail (Setaria faberii)", "assay": "Test A preemergence", "details": "Setaria faberi, pre-emergence, 240 h, preemergence, 0 to 100 scale where 0 is no effect and 100 is complete control, read-out: Foxtail, Giant plant response rating", "in_short": "as §1"}, "[3]": {"system": "pigweed (Amaranthus retroflexus)", "assay": "Test A preemergence", "details": "Amaranthus retroflexus, pre-emergence, 240 h, preemergence, 0 to 100 scale where 0 is no effect and 100 is complete control, read-out: Pigweed plant response rating"}, "[4]": {"system": "ragweed (common ragweed, Ambrosia elatior)", "assay": "Test A preemergence", "details": "Ambrosia artemisiifolia, pre-emergence, 240 h, preemergence, 0 to 100 scale where 0 is no effect and 100 is complete control, read-out: Ragweed plant response rating", "in_short": "as §1"}, "[5]": {"system": "ryegrass, Italian (Italian ryegrass, Lolium multiflorum)", "assay": "Test A preemergence", "details": "Lolium multiflorum, pre-emergence, 240 h, preemergence, 0 to 100 scale where 0 is no effect and 100 is complete control, read-out: Ryegrass, Italian plant response rating", "in_short": "as §1"}, "[6]": {"system": "Galium (catchweed bedstraw, Galium aparine)", "assay": "Test A postemergence", "details": "Galium, post-emergence, 240 h, postemergence, read-out: Galium plant response rating", "in_short": "as §1"}, "[7]": {"system": "barnyardgrass (Echinochloa crus-galli)", "assay": "Test A postemergence", "details": "Echinochloa crus-galli, post-emergence, 240 h, postemergence, read-out: Barnyardgrass plant response rating", "in_short": "as §1"}, "[8]": {"system": "blackgrass (Alopecurus myosuroides)", "assay": "Test A postemergence", "details": "Alopecurus myosuroides, post-emergence, 240 h, postemergence, read-out: Blackgrass plant response rating", "in_short": "as §1"}, "corn (Zea mays)": {"system": "corn (Zea mays)", "assay": "Test A postemergence", "details": "Zea mays, post-emergence, 240 h, postemergence, read-out: Corn plant response rating", "in_short": "as §1"}, "[9]": {"system": "giant foxtail (Setaria faberii)", "assay": "Test A postemergence", "details": "Setaria faberi, post-emergence, 240 h, postemergence, read-out: Foxtail, Giant plant response rating", "in_short": "as §1"}, "[10]": {"system": "pigweed (Amaranthus retroflexus)", "assay": "Test A postemergence", "details": "Amaranthus retroflexus, post-emergence, 240 h, postemergence, read-out: Pigweed plant response rating", "in_short": "as §1"}, "[11]": {"system": "ragweed (common ragweed, Ambrosia elatior)", "assay": "Test A postemergence", "details": "Ambrosia artemisiifolia, post-emergence, 240 h, postemergence, read-out: Ragweed plant response rating", "in_short": "as §1"}, "[12]": {"system": "ryegrass, Italian (Italian ryegrass, Lolium multiflorum)", "assay": "Test A postemergence", "details": "Lolium multiflorum, post-emergence, 240 h, postemergence, read-out: Ryegrass, Italian plant response rating", "in_short": "as §1"}, "[13]": {"system": "wheat (Triticum aestivum)", "assay": "Test A postemergence", "details": "Triticum aestivum, post-emergence, 240 h, postemergence, read-out: Wheat plant response rating", "in_short": "as §1"}, "[14]": {"details": "125 g ai/ha, visual injury on 0 to 100 scale (0 no effect, 100 complete control), approx. 10 d"}, "[15]": {"details": "500 g ai/ha, 0 to 100 scale, 0 is no effect, 100 is complete control"}}, "data": [{"smiles": "CN1C[C@H](c2csc(C(F)F)c2)[C@@H](C(=O)Nc2ccccc2F)C1=O", "note": "[Compound 1123]", "values": [{"measurement": "pest or weed control at 125 g/ha", "setting": "Kochia (Kochia scoparia); 125 g ai/ha, approx. 10 d", "result": 60, "unit": "%"}, {"measurement": "pest or weed control at 500 g/ha", "setting": "Kochia (Kochia scoparia); 500 g ai/ha", "result": 80, "unit": "%"}, {"measurement": "pest or weed control at 125 g/ha", "setting": "[1]; 125 g ai/ha, 0 to 100 scale where 0 is no effect and 100 is complete control, approx. 10 d", "result": 90, "unit": "%"}, {"measurement": "pest or weed control at 500 g/ha", "setting": "[1]; 500 g ai/ha, visual injury rating about 10 d after treatment, 0 to 100 scale (0 no effect, 100 complete control)", "result": 90, "unit": "%"}, {"measurement": "pest or weed control at 125 g/ha", "setting": "[2]; 125 g ai/ha, approx. 10 d", "result": 90, "unit": "%"}, {"measurement": "pest or weed control at 500 g/ha", "setting": "[2]; 500 g ai/ha", "result": 90, "unit": "%"}, {"measurement": "pest or weed control at 125 g/ha", "setting": "[3]; 125 g ai/ha, approx. 10 d", "result": 0, "unit": "%"}, {"measurement": "pest or weed control at 500 g/ha", "setting": "[3]; 500 g ai/ha", "result": 50, "unit": "%"}, {"measurement": "pest or weed control at 125 g/ha", "setting": "[4]; 125 g ai/ha, approx. 10 d", "result": 20, "unit": "%"}, {"measurement": "pest or weed control at 500 g/ha", "setting": "[4]; 500 g ai/ha", "result": 60, "unit": "%"}, {"measurement": "pest or weed control at 125 g/ha", "setting": "[5]; 125 g ai/ha, approx. 10 d", "result": 40, "unit": "%"}, {"measurement": "pest or weed control at 500 g/ha", "setting": "[5]; 500 g ai/ha", "result": 60, "unit": "%"}, {"measurement": "pest or weed control at 125 g/ha", "setting": "[6]; [14]", "result": 40, "unit": "%"}, {"measurement": "pest or weed control at 500 g/ha", "setting": "[6]; [15]", "result": 50, "unit": "%"}, {"measurement": "pest or weed control at 125 g/ha", "setting": "[7]; [14]", "result": 90, "unit": "%"}, {"measurement": "pest or weed control at 500 g/ha", "setting": "[7]; [15]", "result": 90, "unit": "%"}, {"measurement": "pest or weed control at 125 g/ha", "setting": "[8]; [14]", "result": 30, "unit": "%"}, {"measurement": "pest or weed control at 500 g/ha", "setting": "[8]; [15]", "result": 80, "unit": "%"}, {"measurement": "plant injury at 125 g/ha", "setting": "corn (Zea mays); [14]", "result": 20, "unit": "%"}, {"measurement": "plant injury at 500 g/ha", "setting": "corn (Zea mays); [15]", "result": 80, "unit": "%"}, {"measurement": "pest or weed control at 125 g/ha", "setting": "[9]; [14]", "result": 90, "unit": "%"}, {"measurement": "pest or weed control at 500 g/ha", "setting": "[9]; [15]", "result": 90, "unit": "%"}, {"measurement": "pest or weed control at 125 g/ha", "setting": "[10]; [14]", "result": 0, "unit": "%"}, {"measurement": "pest or weed control at 500 g/ha", "setting": "[10]; [15]", "result": 20, "unit": "%"}, {"measurement": "pest or weed control at 125 g/ha", "setting": "[11]; [14]", "result": 30, "unit": "%"}, {"measurement": "pest or weed control at 500 g/ha", "setting": "[11]; [15]", "result": 50, "unit": "%"}, {"measurement": "pest or weed control at 125 g/ha", "setting": "[12]; [14]", "result": 30, "unit": "%"}, {"measurement": "pest or weed control at 500 g/ha", "setting": "[12]; [15]", "result": 50, "unit": "%"}, {"measurement": "plant injury at 125 g/ha", "setting": "[13]; [14]", "result": 0, "unit": "%"}, {"measurement": "plant injury at 500 g/ha", "setting": "[13]; [15]", "result": 60, "unit": "%"}]}]}
